According to PubChem BioAssay AID248 (DTP/NCI, 2004):
Values joined by “and” are separate entries in the source; they are usually repeats but may differ in a detail not shown here. Equal entries are not always repeated. Toxic doses and inconclusive results are not listed. Cut-off read from the data, not from the text of the source: active = T/C of 150% or more; inactive = T/C below 125%.

Tested on: L1210 leukemia ip in BDF1 mice, survival T/C
Test: NCI In Vivo Anticancer Drug Screen. Data for tumor model L1210 Leukemia (intraperitoneal) in B6D2F1 (BDF1) mice
Conditions: endpoint: mean survival time, higher = longer survival
How it was run: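 Transplantable tumor model; survival measured in treated vs vehicle control mice. Value = treated/control.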

[1] = dose: 50.0 mg/kg/injection, schedule: Q01DX009 (ip), vehicle: saline with Tween-80
[2] = dose: 100.0 mg/kg/injection, schedule: Q01DX009 (ip), vehicle: saline with Tween-80
[3] = dose: 100.0 mg/kg/injection, schedule: Q04DX003 (ip), vehicle: saline with Tween-80
[4] = dose: 200.0 mg/kg/injection, schedule: Q01DX009 (ip), vehicle: saline with Tween-80
[5] = dose: 200.0 mg/kg/injection, schedule: Q04DX003 (ip), vehicle: saline with Tween-80
[6] = dose: 400.0 mg/kg/injection, schedule: Q01DX009 (ip), vehicle: saline with Tween-80
[7] = dose: 400.0 mg/kg/injection, schedule: Q04DX003 (ip), vehicle: saline with Tween-80
[8] = dose: 100.0 mg/kg/injection, schedule: Q01DX001 (ip), vehicle: saline
[9] = dose: 100.0 mg/kg/injection, schedule: Q04DX003 (ip), vehicle: saline
[10] = dose: 200.0 mg/kg/injection, schedule: Q01DX001 (ip), vehicle: saline
[11] = dose: 200.0 mg/kg/injection, schedule: Q04DX003 (ip), vehicle: saline
[12] = dose: 400.0 mg/kg/injection, schedule: Q01DX001 (ip), vehicle: saline
[13] = dose: 400.0 mg/kg/injection, schedule: Q04DX003 (ip), vehicle: saline

Measured: T/C

CN(C)N=Nc1ccc(C(F)(F)F)cc1
inactive: dose: 50.0 mg/kg/injection, schedule: Q01DX001 (ip), vehicle: saline with Tween-80 97 % of control | [1] 94 % of control | dose: 50.0 mg/kg/injection, schedule: Q04DX003 (ip), vehicle: saline with Tween-80 98 % of control | dose: 100.0 mg/kg/injection, schedule: Q01DX001 (ip), vehicle: saline with Tween-80 103 % of control | [2] 94 % of control | [3] 98 % of control | dose: 200.0 mg/kg/injection, schedule: Q01DX001 (ip), vehicle: saline with Tween-80 105 % of control | [4] 97 % of control | [5] 101 % of control | dose: 400.0 mg/kg/injection, schedule: Q01DX001 (ip), vehicle: saline with Tween-80 101 % of control | [6] 98 % of control | [7] 98 % of control

Cc1cccc(CC23CC4CC(CC(C4)C2)C3)c1
inactive: [2] 91 % of control | [3] 102 % of control | [4] 90 % of control | [5] 100 % of control | [6] 95 % of control | [7] 98 % of control

N#CC1(C#N)C(c2ccccc2)C1(C#N)C#N
inactive: dose: 6.25 mg/kg/injection, schedule: Q01DX009 (ip), vehicle: saline with Tween-80 107 % of control | dose: 6.25 mg/kg/injection, schedule: Q04DX003 (ip), vehicle: saline sonified 102 % of control | dose: 12.5 mg/kg/injection, schedule: Q01DX009 (ip), vehicle: saline with Tween-80 105 % of control | dose: 12.5 mg/kg/injection, schedule: Q04DX003 (ip), vehicle: saline sonified 113 % of control | dose: 25.0 mg/kg/injection, schedule: Q01DX009 (ip), vehicle: saline with Tween-80 105 % of control | dose: 25.0 mg/kg/injection, schedule: Q04DX003 (ip), vehicle: saline sonified 96 % of control

O=S(=O)(CC(Cl)c1ccccc1)c1ccc(Br)cc1 (configuration not stated)
inactive: [8] 94 % of control | [9] 94 % of control | [10] 92 % of control | [11] 96 % of control | [12] 92 % of control | [13] 94 % of control

CC1CN=C(CCc2ccc(NC(=O)c3ccc(C(=O)Nc4ccc(CCC5=NCC(C)N5)cc4)cc3)cc2)N1 (configuration not stated)
inactive: dose: 240.0 mg/kg/injection, schedule: Q01DX Z (ip), vehicle: saline 97 % of control | dose: 480.0 mg/kg/injection, schedule: Q01DX Z (ip), vehicle: saline 92 % of control

O=C(O)CCCCc1ccc(CCCCC(=O)O)cc1
inactive: [1] 96 % of control | [2] 106 % of control | dose: 100.0 mg/kg/injection, schedule: Q04DX003 (ip), vehicle: Klucel (hydroxypropylcellulose) (HPC) 97 % of control | dose: 200.0 mg/kg/injection, schedule: Q04DX003 (ip), vehicle: Klucel (hydroxypropylcellulose) (HPC) 104 % of control

CCCC(NC)C(CC)CN (configuration not stated)
93 % of control and 242 % of control: dose: 200.0 mg/kg/injection, schedule: Q01DX001 (ip), vehicle: carboxymethylcellulose (CMC)
inactive: dose: 50.0 mg/kg/injection, schedule: Q01DX001 (ip), vehicle: carboxymethylcellulose (CMC) 105 % of control and 120 % of control | dose: 75.0 mg/kg/injection, schedule: Q01DX001 (ip), vehicle: saline 97 % of control | dose: 88.0 mg/kg/injection, schedule: Q01DX001 (ip), vehicle: saline 109 % of control | dose: 100.0 mg/kg/injection, schedule: Q01DX001 (ip), vehicle: carboxymethylcellulose (CMC) 104 % of control | dose: 133.0 mg/kg/injection, schedule: Q01DX001 (ip), vehicle: saline 101 % of control | dose: 150.0 mg/kg/injection, schedule: Q01DX001 (ip), vehicle: saline 97 % of control | [10] 101 % of control

O=C1Nc2cccc3cc([N+](=O)[O-])cc1c23
inactive: [8] 101 % of control | [10] 93 % of control | [12] 103 % of control

OCC1CC2CCC1CC2 (configuration not stated)
inactive: [1] 100 % of control | [2] 105 % of control | [4] 108 % of control

COC(=O)C1CCN1C(C)(C)C (configuration not stated)
inactive: dose: 100.0 mg/kg/injection, schedule: Q01DX009 (ip), vehicle: saline 95 % of control | [9] 111 % of control | dose: 200.0 mg/kg/injection, schedule: Q01DX009 (ip), vehicle: saline 95 % of control | [11] 105 % of control | dose: 400.0 mg/kg/injection, schedule: Q01DX009 (ip), vehicle: saline 103 % of control | [13] 110 % of control

CC1(C(Cl)(Cl)Cl)C=CC(=NOCC(=O)O)C=C1 (configuration not stated)
inactive: dose: 100.0 mg/kg/injection, schedule: Q04DX002 (ip), vehicle: Klucel (hydroxypropylcellulose) (HPC) 98 % of control | dose: 200.0 mg/kg/injection, schedule: Q04DX002 (ip), vehicle: Klucel (hydroxypropylcellulose) (HPC) 95 % of control | dose: 400.0 mg/kg/injection, schedule: Q04DX002 (ip), vehicle: Klucel (hydroxypropylcellulose) (HPC) 98 % of control

O=[N+]([O-])Nc1ccnnc1
inactive: [8] 94 % of control | [10] 96 % of control | [12] 96 % of control
